Experiment [1] deals with MAdCAM-1 (Madcam1 gene expression). In words: Madcam1 gene and protein expression in gut tissues of mice (RT-PCR, IHC, flow cytometry, ELISA). The experiment is classed as in vivo, C57BL/6J mice. Conditions: for Madcam1 gene expression in ileal LP / Madcam1 gene expression in mesenteric lymph nodes (mLN): single antibiotic regimen, 7 days conditioning. As to the method: (§1) Antibiotic treatments. If not indicated otherwise, mice were treated with a broad spectrum antibiotic solution (ATB) containing ampicillin (1 mg/ml), streptomycin (5 mg/ml), and colistin (1 mg/ml) (Sigma-Aldrich) added to the sterile drinking water of mice. In experiments where single antibiotics were used the concentrations were ampicillin (1 mg/ml), streptomycin (5 mg/ml), colistin (1 mg/ml), erythromycin (1 mg/ml) or ciprofloxacin (0.1 mg/ml) respectively. Solutions and bottles were changed 2 times weekly. Antibiotic activity, in the experiments where the antibiotic mix was used, was confirmed by cultivating fecal pellets resuspended in BHI+15% glycerol at 0.1 g/ml on COS (Columbia Agar with 5% Sheep Blood) plates for 48 h at 37° C. in aerobic and anaerobic conditions weekly. Duration of ATB treatment was slightly different (7-14 days before aPD-1 treatment) based on the experimental settings and is indicated in results for each experiment. In brief, to compromise the efficacy of anti-PD-1 mAb, mice were treated with ATB for one to two weeks before tumor implantation and ATB was continued throughout the experiment or discontinued on the day of anti PD-1 treatment initiation as indicated in the individual experiment. In the context of fecal microbial transplantation experiments, mice received 3 days of ATB before undergoing fecal microbial transplantation the next day by oral gavage using animal feeding needles. In the TC-1 model, ATB treatment was started 3 days before tumor injection and discontinued one day before the first bacterial gavage.
Oral bacterial gavage with commensal species. Akkermansia muciniphila CSUR P2261, and A. indistinctus CSUR P723 were provided by the Institut hospitalo-universitaire Méditerranée Infection, Marseille, France. Enterococcus hirae 13144 isolates were originally isolated from spleens or mesenteric lymph nodes of SPF mice treated with CTX at Gustave Roussy Cancer Campus. A. muciniphila was grown on COS plates in an anaerobic atmosphere created using 3 anaerobic generators (Biomerieux) at 37° C. for at least 72 h. E. hirae 13144 were grown on 5% sheep blood enriched Columbia agar for 24 h at 37° C. in aerobic conditions. Colonization of ATB pre-treated or GF C57BL/6 mice was performed by oral gavage with 100 μl of suspension containing 1×10^8 bacteria. For bacterial gavage: suspensions of […] were obtained using a fluorescence spectrophotometer (Eppendorf) at an optical density of 600 nm in PBS. Five bacterial gavages were performed for each mouse, the first 24 h before the first injection of antiPD-1 mAb and subsequently four times on the same day as anti-PD-1 mAb injection. The efficacy of colonization with E. hirae 13144 was confirmed by culturing the feces 48 h post gavage. Fecal pellets were harvested and resuspended in BHI+15% glycerol at 0.1 g/ml. Serial dilutions of feces were plated onto 5% sheep blood enriched Columbia agar and incubated for 48 h at 37° C. in aerobic and anaerobic conditions. After 48 h, single colonies were isolated and Gram staining was performed. The identification of specific bacteria was accomplished using a Matrix-Assisted Laser Desorption/Ionisation Time of Flight (MALDI-TOF) mass spectrometer (Andromas, Beckman Coulter, France).
RNA extraction and rtPCR. Lysis and extraction protocols were identical for human and mouse samples. Tumor or intestinal samples were snap frozen in liquid nitrogen in RLT Plus buffer containing 0.1% beta mercaptoethanol. On the day of extraction samples were thawed at 4° C. and homogenized on a microtube homogenizer (Benchmark Scientific) in RNA free glass bead tubes (Dutscher). Total RNA extraction and genomic DNA removal were performed with the RNeasy Mini kit (Qiagen), following the manufacturer's recommendations. […]

Experiment [2] relates to metastatic bladder cancer. In words: STRONG study, Durvalumab in pre-treated metastatic bladder cancer patients. Conditions: 79 patients, 1500 mg iv /4 weeks. It counts as in vivo, human. As to the method: Finally, we sought to triplicate the predictive value of sMAdCAM-1 in a subcohort of a Phase 3a trial enrolling pre-treated metastatic bladder cancer patients to receive a fixed dose of 1500 mg of Durvalumab iv (anti-PD-L1 Abs)/4 weeks. In this STRONG study, 79 patients only were analyzed, with an overall median OS of 5.79 months, and a median PFS of 2.79 months. We selected the extreme of the STRONG cohort, 30 Elite patients (OS>6 months, PFS>5 months, PR+CR only) and rapid progressors (n=49, with OS<6 months and PFS<5 months and PD at the first CT scan). In this cohort, the MAdCAM-1 median (min,max) was 158.8 ng/ml (53.41, 244.36).

In experiment [3] the test system is metastatic clear cell renal cell carcinoma (RCC). Put plainly: NIVOREN trial, second line anti-PD1 in renal cell carcinoma patients. It counts as in vivo, human.
The test system of experiment [4] is RORγt+ Treg (Tr17) in MCA205 and 4T1 tumors. In words: Flow cytometry of tumor infiltrating lymphocytes and mLN (Tr17 subsets). Conditions: oral gavage after ATB stop, s.c. MCA205, αPD-1-based therapy. The experiment is classed as in vivo, mice. As to the method: as §1, with “In the context of fecal microbial transplantation experiments, mice received 3 days of ATB before undergoing fecal microbial transplantation the next day by oral gavage using animal feeding needles. In the TC-1 model, ATB treatment was started 3 days before tumor injection and discontinued one day before the first bacterial gavage.” left out
Subcutaneous model of MCA-205 sarcoma, MC38 and RET melanoma. […] Tumor length and width was routinely monitored every 3 times per week by means of a caliper. […]

[5] abbreviates: NIVOREN trial, N=729 RCC patients.

Consider `[H]/N=C(/N)N[C@H]1[C@H](O)[C@@H](O)[C@H](O[C@@H]2O[C@@H](C)[C@](O)(C=O)[C@H]2O[C@@H]2O[C@@H](CO)[C@H](O)[C@@H](O)[C@@H]2NC)[C@@H](N/C(N)=N\[H])[C@@H]1O` [streptomycin], for which, in experiment [1] (RT-PCR), the “Madcam1 gene expression in Peyers' patches (PP)” value is on record as “downregulated”, the “Madcam1 gene expression in ileal LP” value is listed as “downregulated” and the “Madcam1 gene expression in mesenteric lymph nodes (mLN)” value (“Madcam1 gene expression … (mLN)” for short) is reported as “downregulated”.
`CC[C@H]1OC(=O)[C@H](C)[C@@H](O[C@H]2C[C@@](C)(OC)[C@@H](O)[C@H](C)O2)[C@H](C)[C@@H](O[C@@H]2O[C@H](C)C[C@H](N(C)C)[C@H]2O)[C@](C)(O)C[C@@H](C)C(=O)[C@H](C)[C@@H](O)[C@]1(C)O` [erythromycin]: the “Madcam1 gene expression … (mLN)” value in experiment [1] (RT-PCR) is “downregulate”.
As to `CN[C@H](CC(C)C)C(=O)N[C@H]1C(=O)N[C@@H](CC(N)=O)C(=O)N[C@H]2C(=O)N[C@H]3C(=O)N[C@H](C(=O)N[C@H](C(=O)O)c4cc(O)cc(O)c4-c4cc3ccc4O)[C@H](O)c3ccc(c(Cl)c3)Oc3cc2cc(c3O[C@@H]2O[C@H](CO)[C@@H](O)[C@H](O)[C@H]2O[C@H]2C[C@](C)(N)[C@H](O)[C@H](C)O2)Oc2ccc(cc2Cl)[C@H]1O` [vancomycin], in experiment [1] (RT-PCR), the “Madcam1 gene expression in ileal LP” value is listed as “upregulated” and the “Madcam1 gene expression … (mLN)” value was “failed to downregulate”.
On to Durvalumab: anti-PD-L1 Abs, for which, in experiment [2], the “median PFS” value is 2.79 months and the “overall median OS” value came out at 5.79 months.
On to Nivolumab: anti-PD1 mAb, for which, in experiment [3] (setting [5]), the complete responses is listed as 1.2%, the objective response rate is given as 20.8%, the partial responses is reported as 19.6% and the “progressive diseases (PD)” value is given as 79.2%. Also, in experiment [3] (Overall (n = 212) RCC patients), the “Best response: Partial response” value is “(7.1) %” and the “Best response: Progressive disease” value is “(49.7) %”.
With `CC1(C)S[C@@H]2[C@H](NC(=O)[C@H](N)c3ccccc3)C(=O)N2[C@H]1C(=O)O` [ampicilline, ampicillin], in experiment [1] (RT-PCR), the “Madcam1 gene expression … (mLN)” value was “downregulate”.
As for Lactobacillus reuteri, in experiment [1] (oral supplementation of FMT recipients), the “Madcam1 ileal gene expression” value was “could further influence”. For the same compound, the “Tr17 recruitment promoted by PD1 inhibition” value in experiment [4] is “failed to do so”.
